# Source: patent US20260364186A1, “Chemical Conjugates, Compositions, and Methods of Preparation and Use Thereof” (Transfection Holdings Limited, priority 2022, published 2026)
# Where “and” joins values, the source holds several entries; their conditions need not be identical. Equal values may be shown once.
# Assays:
# Assay type in all cases: cell-based, human
# [1] = test system: NZM40 (NRAS Q16H) melanoma cells; test: FACS uptake of BODIPY FL conjugates, 200 nM, 5 min (Example 2)
# Protocol: FIG. 2. Conjugate compounds coupled to BODIPY FL were tested for uptake using 200 nM each conjugate and 5 minute incubation with melanoma cell line NZM11 (BRAF V600E mutant metastatic melanoma), melanoma cell line NZM40 (NRAS Q16H mutant metastatic melanoma) and melanoma cell line NZM9 (BRAF and NRAS wildtype metastatic melanoma). Mean fluorescent intensities (MFI). 2,000 cells (NZM11), 1,000 cells (NZM40) and 500-1,000 cells (NZM9). Cells were sorted by FACS. Bars represent mean±SD. Results were from a single experiment done in triplicate.
# NZM40 is an adherent cell line which was originally derived from a metastatic melanoma from a patient, in 2004. This human metastatic melanoma is identified with code CBA-1381 from Cell bank Australia. […] Ras is a superfamily of proteins implicated in cell growth, survival and differentiation. NRAS (neuroblastoma rat sarcoma) was the first oncogene recognized in melanoma and mutations in NRAS account for 20% of all melanomas. NRAS mutations primarily occur at position 61 and involve amino acid change from glutamine (Q) to arginine (R), lysine (K), leucine (L) or histidine (H). These mutations block NRAS into a GTP-bound state damaging its GTPase activity (FIG. 1). Patients are usually older (>55 years) with previous UV exposure. See Garcia-Alverez et al., 2021.
# For screening, NZM11, NZM40 and NZM9 cells were suspended at […] dispensed into 96 well plates and left to settle for 48 hours. Then, 10 μL of 10 mM stock solutions in DMSO for the conjugates were diluted with HBSS to afford 400 nM solution. Next, 400 nM compounds and DMSO solutions were diluted 1:1 with MEMα media to afford 200 nM solutions. After 48 hours the media was removed from the 96 well plates and 200 μL of 200 nM conjugates solutions dispensed to each well (in triplicate) and incubated for 5 minutes at 37 °C. After 5 minutes, the media was removed and cells washed with PBS. Then, 100 μL of TrypLE trypsin (ThermoFisher Scientific) were added to each well and incubated for 5 minutes at 37 °C after which, 100 μL of MEMα media were added and samples were sorted through FACS biosort. The FACS results output were represented as the mean of the fluorescence intensities (in arbitrary units) measured for cells sorted in every sample.
# Jurkat cells = test: FACS uptake of BODIPY FL conjugates in Jurkat cells (Example 3); conditions: 200 nM
# Protocol: FIG. 3B: Conjugate compounds coupled to BODIPY FL were tested for uptake using 200 nM each conjugate and 5 minute incubation with immortalized T lymphocyte cell line, Jurkat cells. Mean fluorescent intensities (MFI). 1,000 cells sorted by FACS. Bars represent mean±SD. Results represent a single experiment done in duplicate.
# Materials and methods: Jurkat cells have been previously shown to be defective in the expression of two lipid phosphatases, PTEN (phosphatase and tensin homologue) and SHIP (SH2-domain-containing inositol polyphosphate 5′ phosphatase). The biological implications of SHIP deficiency in T cells remain under evaluation, but the loss of PTEN leads to activation of the phosphatidylinositol 3-kinase (PI3K)-signalling pathway. See Abraham and Weiss, 2004. This activation of PI3K protein is also on NZM40 melanoma cell line, and represents a key mutation for its sustained proliferation. See Silva et al., 2017. For these experiments, Jurkat cells were diluted on RPMI media (supplemented with 10% FBS+1% penicillin-streptomycin) to afford 400 cells/μL. 2 μL of 100 μM stock solutions in DMSO from 138 and pantothenic acid/pantothenic acid derivatives coupled to BODIPY were diluted with 998 μL of RPMI media (supplemented with 10% FBS+1% penicillin-streptomycin) to afford 200 nM solution. 100,000 cells were dispensed to Eppendorf tubes, centrifuged for 1.5 min at 5000 rcf and the supernatant was removed. The cells then were incubated with 500 μL of solutions at 200 nM for 4.5 min and 37 °C. After the incubation time, cells were centrifuged for 1.5 minutes at 5000 rcf. Supernatant was removed and cell pellet re-suspended in 200 μL fresh RPMI media, transferred to 96 well-plate and run on FACS machine, approximately 1,000 cells analysed.
# [2] = test system: HT29 (colorectal cancer cell line); test: FACS uptake of BODIPY FL conjugates (Example 4); conditions: 200 nM, 5 min
# Protocol: FIG. 4A: Conjugate compounds coupled to BODIPY FL were tested for uptake using 200 nM each conjugate and 5 minute incubation with colorectal cancer cell line HT29. Mean fluorescent intensities (MFI). 1,000 cells were sorted by FACS.
# Materials and methods: The HT-29 line was originally isolated from a primary tumour in 1964 from a person. This cell line is positive for expression of N-ras and overexpression of p53 antigen. The human colon adenocarcinoma cell line HT29, is not only used to study the biology of human colon cancers, but it is receiving special interest in studies focused on food digestion and bioavailability due to the ability to express characteristics of mature intestinal cells. The application of this cell line to transport studies of drugs and food compounds is illustrated, especially when the effect of the mucus layer is considered or used as co-culture in combination with Caco-2 cells. These cells have shown a high rate of glucose consumption and therefore, they require high glucose concentration in the medium. Verhoeck et al., 2015.
# For these experiments, HT-29 or MEF cells were diluted on αMEM media (supplemented with 10% FBS+1% penicillin-streptomycin) to give a 250 cells/μL suspension of which 200 μL were aliquoted into each well of a 96 well plate followed by incubation for 24 hours. Next, 2 μL of 100 μM stock solutions in DMSO from the conjugates coupled to BODIPY were diluted with 998 μL of αMEM media to give a 200 nM solution. After 24 hour incubation, media was removed and 200 μL of 138 and pantothenic acid/pantothenic acid derivatives coupled to BODIPY 200 nM solutions were added and cells were incubated for 5 minutes at 37 °C. After 5 minutes, the compounds and DMSO solutions were removed and cells were washed with PBS. Then, 100 μL of TrypLE trypsin were added to each well and incubated for 5 minutes at 37 °C. After this time, 100 μL of DMEM media were added to the wells and samples were sorted through FACS biosort. The studies were completed in duplicated wells.
# [3] = test system: NZM11 (BRAF V600E) melanoma cells; test: Time course of uptake by FACS (Example 5); conditions: 200 nM
# Protocol: FIG. 5A: Time course of uptake for 124, 125, 131, 132 conjugate compounds. Tests were performed using 200 nM each conjugate and 5, 30, or 60 minute incubation with melanoma cell line NZM11 (BRAF V600E mutant metastatic melanoma). Mean fluorescent intensities (MFI), n=300 mean±SD. The cells were sorted by FACS.
# FIG. 5B: Time course of uptake for 124 and 3-azido BODIPY FL. Tests were performed using 200 nM each compound and 1 or 3 hour incubation with melanoma cell line NZM11 (BRAF V600E mutant metastatic melanoma). Mean fluorescent intensities (MFI). n=2000-3000 mean±SD. The cells were sorted by FACS.
# Materials and methods: NZM11 cells were suspended at […] dispensed into 96 well plates and left to settle for 48 hours. 10 μL of 10 mM stock solutions in DMSO from the conjugates coupled to BODIPY were diluted with HBSS to afford 400 nM solution. Then, 400 nM compounds and DMSO solutions were diluted 1:1 with MEMα media to afford 200 nM solutions. After 48 hours the media was removed from the 96 well plates and 200 μL of 200 nM conjugates solutions dispensed to each well (in duplicate) and incubated for 5 minutes, 30 minutes and 60 minutes at 37 °C (for the first test) or 60 minutes and 3 hours (for the second test). After indicated incubation time, the media was removed and cells washed with PBS. 100 μL of TrypLE trypsin (ThermoFisher Scientific) were added to each well and incubated for 6.5 minutes at 37 °C after which, 100 μL of MEMα media were added and samples were sorted through FACS biosort. FACS results output represented the mean of the fluorescence intensities (in arbitrary units) measured for cells sorted in every sample. Uptake rate was calculated by the equation: Uptake rate=(MFI2−MFI1)/(T2−T1)
# whereby: MFI=mean fluorescent intensities; T=time (at which time the sample was taken); Uptake rate units: fluorescence intensities units per minute.
# [4] = test system: NZM11 (BRAF V600E mutant metastatic melanoma) cells; test: Sulforhodamine B (SRB) assay of viability / proliferation, auranofin conjugates (Example 8)
# Protocol: FIG. 8: Effect of 136 and 137 (auranofin conjugates) on viability of NZM11 melanoma cells. Cells were incubated with 136 and 137 at 10 μM final concentration and kept at 37 °C for 48 hours. Pantothenic acid (PA), CJ-15,801, and biotin were tested at 200 μM final concentration. […] Two batches of auranofin were tested at 10 μM final concentration.
# FIG. 9: The viability data from FIG. 8 was normalised to the treatment plate and DMSO control and plotted as a percentage of cell growth. Individual data points represent technical replicates. Curve indicates non-linear regression slope, which allows determination of IC50 values.
# Materials and methods: NZM11 cells were cultured in MEMα media with an initial count of 1020 cells/μL. The cells were then diluted to get 25 cells per μL and 200 μL of this suspension (5000 cells per well), dispensed into 96 well plates and left to settle for 24 hours. 10 mM stock solutions of 136, 137, and auranofin were diluted with 1% FBS MEMα media to give 10 nM, 30 nM, 100 nM, 300 nM, 1 μM, 3 μM, 10 μM, 30 μM and 100 μM solutions. After 24 hours the media was removed from the 96 well plates. To individual wells 200 μL of each dilution were dispensed in triplicate for three groups (136, 137, and auranofin): 1% FBS MEMα media only (DMSO control), 10 nM, 30 nM, 100 nM, 300 nM, 1 μM, 3 μM, 10 μM, 30 μM and 100 μM. The cells were incubated at 37 °C, 5% 02 and 5% CO2 for 48 hours.
# In order to test the potency of 136 and 137, the IC50 values were calculated for these auranofin conjugates. For analysis of the treatment plate (Tz) a SRB assay was utilised. For this assay, 50 μL of 50% (w/v) ice-cold trichloroacetic acid (TCA) was added to each well. To achieve this, 5 g of TCA was made up to 10 mL with milliQ H2O. This was cooled on ice. Incubation was carried out for 1 hour at 4 °C to fix cells. TCA and media were removed from cells. Five milliQ washes were carried out and the plate was left to air dry. Next, 50 μL of 0.4% SRB solution (prepared in 1% acetic acid) was added to each well and incubated for 10 minutes at room temperature. The SRB solution was removed and five milliQ washes were carried out. Then, 100 μL of 10 mM Tris solution was added to each well, and the dye was solubilised. Absorbance at 515 nm was read on plate reader. Data was normalized to Tz plate, as per NCI60 screening method (https://dtp.cancer.gov/discovery_development/nci-60/methodology.htm).
molecule,measurement,setting,value
"CC1=CC(C)=[N+]2C1=Cc1ccc(CCCn3cc(CCNC(=O)/C=C\NC(=O)[C@@H]4OC(C)(C)OCC4(C)C)nn3)n1[B-]2(F)F [Compound 129, (Z)—N-((((3-[4,4-Difluoro-5,7-dimethyl-4-bora-3a,4a-diaza-s-indacene-3-yl]propyl)-1H-1,2,3-triazol-4-yl)ethylamino)-3-oxoprop-1-enyl)-2,2,5,5-tetramethyl-1,3-dioxane-4-carboxamide]",uptake (fluorescence intensities),[1],showed selectivity
same,uptake / targeting,Jurkat cells,showed targeting
same,uptake (fluorescent intensities),[2],higher uptakes than their diol counterparts
"CC1=CC(C)=[N+]2C1=Cc1ccc(CCCn3cc(CCNC(=O)/C=C\NC(=O)[C@@H](O)C(C)(C)CO)nn3)n1[B-]2(F)F [Compound 130, (Z)—N-((((3-[4,4-Difluoro-5,7-dimethyl-4-bora-3a,4a-diaza-s-indacene-3-yl]propyl)-1H-1,2,3-triazol-4-yl)ethylamino)-3-oxoprop-1-enyl)-2,4-dihydroxy-3,3-dimethylbutanamide]",uptake (fluorescence intensities),[1],showed selectivity
"CC1=CC(C)=[N+]2C1=Cc1ccc(CCCN=[N+]=[N-])n1[B-]2(F)F [3-azido BODIPY FL, 3-Azido[4,4-difluoro-5,7-dimethyl-4-bora-3a,4a-diaza-s-indacene-3-yl]propane, reference compound]",times lower intensities than 124,[3]; 1 hour,6 times
same,times lower intensities than 124,[3]; 3 hours,6 times
same,"uptake / intensities, in words","[3]; NZM11, time course",low uptake rate
"(R,E)-((4-(3-(2,4-dihydroxy-3,3-dimethylbutanamido)acrylamido)phenyl)thio)(triethyl-phosphaneyl) Gold (I) [Compound 137]","reduction on viability, as compared to auranofin itself","[4]; 10 μM, 48 hours",more than 95%
same,"effect of CJ-15,801/138 on activity",[4]; 138 20 times more concentrated (200 μM),not affected
same,IC50 relative to auranofin,"[4]; NZM11, 48 hours",five times higher than auranofin
same,IC50,"[4]; NZM11, 48 hours, SRB assay",2940 nM and ~2800 nM
same,effect of biotin and pantothenic acid on activity,[4]; vitamins 20 times more concentrated (200 μM),not affected
